Laboratory results published in patent publication US20230357099A1, “PYRAZOLO [3,4-B] PYRIDINE-4-CARBOXAMIDE NITRIFICATION INHIBITOR” (EUROCHEM ANTWERPTEN, priority 2020, published 2023).

Columns and labels:
agricultural soils = test: In soil nitrification inhibition assay; conditions: Soil 2
Experimental: Top layer (0 to 10 cm) soil samples were collected from different fields in Belgium (Merelbeke, Sint-Laureins and Moorslede). Vegetation was removed and samples were taken from different plots. All soil samples were mixed and sieved (mesh size 2.8 mm) to filter large debris and homogenize soil. The soil was stored at 5° C. in plastic containers covered with Saran foil to prevent changes in microbial community composition and to maintain the original soil water content.
Soil water content was determined by drying 20 g soil for ≥ 48 h in a 60° C. oven and measuring weight before and after drying. Based on the soil water content (± 20%), compound solutions were prepared so that addition of 200 µl compound and 200 µl NH4Cl solution would result in a final compound concentration of 50 µM (unless otherwise stated) and a final NH4+ concentration of 10 mM. Per treatment, 5 small pots were filled with 20 g soil. Next, the soil was treated first with the respective compound solution and then with the NH4Cl solution. Per tray, positive (50 µM DMP) and negative controls (DMSO) were included. […] Demineralized water was added to the soil every 2 to 3 days to a soil weight of 20 g. In the end, each sample of 20 g soil was dissolved in 100 ml 1 M KCI and shaken for 1 hour, followed by filtration through Whatmann® paper. The filtrate was used to measure pH, NH4+ and NO3— concentrations. The nitrification percentage was calculated as the ratio of the consumed ammonium in treated soil versus the consumed ammonium in non-treated soil; the nitrification inhibition percentage was calculated as ‘100% - the nitrification percentage’.

[1] = system: Nitrososphaera viennensis; test: Nitrification inhibition assay on Nitrososphaera viennensis (nitrite, Griess); assay type: cell-based, Nitrososphaera viennensis EN76T; conditions: Nitrososphaera viennensis; 2.5 µM compound; structural variants outside formula (I); read-out: Relative nitrification (%) by Nitrososphaera viennensis treated with 2.5 µM compound
Outline: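 N. viennensis EN76T cultures in FWM (pH 7.5, NH4Cl-supplemented), 5× concentrated, treated with compounds at 2.5 µM final (0.25% DMSO) and incubated 24 h at 42 °C. Nitrite measured by Griess absorbance at 540 nm against a standard curve. Relative nitrification normalized between DMSO (no compound) and 100 µM PTIO controls.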

[2] = system: ABIL (ammonia-binding liquid inoculum), nitrifying microbial enrichment containing both AOA and AOB; test: Nitrification inhibition assay on ABIL (ammonium consumption); assay type: cell-based; conditions: 10 µM compound; structural variants outside formula (I); read-out: Relative nitrification (%) by ABIL treated with 10 µM compound
[3] = 7 days, 100 µM of each compound, 6 inhibitors alone and combined with Example 2

Row | Compound | Nitrification inhibition (%) (agricultural soils; [3]) | activity at 2.5 µM [1] [%] | activity at 10 µM [2] [%] | inhibition at 50 µM (agricultural soils; soil, 120 h, 5 days, 50 µM of each compound) [%] | inhibition at 100 µM (agricultural soils; soil, 168 h, 7 days, 100 µM of each compound, 6 inhibitors alone and combined with Example 2) [%]
1 | c1nc[nH]n1 [1,2,4-triazole, 1H-1,2,4-triazole] | 32 | – | – | – | –
2 | N#CN=C(N)N [DCD, dicyandiamide] | 0 | – | – | – | –
3 | O=C(NCC1CCCO1)c1n[nH]c2ccc(Br)cc12 (stereo not shown) [Example 142] | – | 100 | 100 | – | –
4 | O=C(NC1CC1)c1cccc(NC(=O)c2n[nH]c3ccccc23)c1 [Example 165] | – | 100 | 100 | – | –
5 | O=S(=O)(Nc1cccc2[nH]ncc12)N1CCCCC1 [Example 113] | – | 100 | 98 | – | –
6 | COCCC1(C(=O)Nc2cnc3[nH]nc(C)c3c2)CCCC1 [Example 49] | – | 100 | 100 | – | –
7 | Cc1nn(C)c2ncc(CNCc3ccc(N4CCCC4)nc3)cc12 [Example 59] | – | 92 | 100 | – | –
8 | CC(C)n1ncc2cc(C(=O)O)cnc21 [Example 61] | – | 100 | 100 | – | –
9 | Cc1n[nH]c2ncc(CNCCc3ccsc3)cc12 [Example 40] | – | 93 | 98 | – | –
10 | O=C(O)CC1(CC(=O)Nc2ccc3cn[nH]c3c2)CCCCC1 [Example 129] | – | 100 | 100 | – | –
11 | S=C1NCCS1 [1,3-thiazolidine-2-thione] | – | – | – | 59 | 46
12 | CCN(CC1CCOC1)C(=O)c1cnc2c(cnn2C(C)C)c1 (stereo not shown) [Example 29] | – | 100 | 92 | – | –
13 | O=C(NCc1ccc(F)cc1C(F)(F)F)c1cccc2cn[nH]c12 [Example 147] | – | 92 | 100 | – | –
14 | CNC(=O)N(C)C(=O)c1cnc2c(cnn2C(C)C)c1 [Example 27] | – | 100 | 92 | – | –
15 | COCCN(C(=O)c1cnc2c(cnn2C(C)C)c1)C1CC1 [Example 79] | – | 97 | 100 | – | –
16 | COC(=O)C1(CNCc2cccc3cn[nH]c23)CCOCC1 [Example 152] | – | 98 | 100 | – | –
17 | COc1ccc(S(=O)(=O)Nc2cccc3cn[nH]c23)c(NS(=O)(=O)C(F)F)c1 [Example 107] | – | 100 | 96 | – | –
18 | O=S(=O)(Nc1ccc2cn[nH]c2c1)c1ccc(S(=O)(=O)N2CCCC2)cc1 [Example 118] | – | 100 | 99 | – | –
19 | FC(F)(F)c1c[nH]c(C2CCN(Cc3cccc4cn[nH]c34)CC2)n1 [Example 158] | – | 100 | 100 | – | –
20 | Cc1nccc(Nc2ccc3[nH]ncc3c2)n1 [Example 115] | – | 96 | 98 | – | –
21 | CC(C)n1ncc2cc(NC(=O)C3=CN4CCS(=O)(=O)N=C4C=C3)cnc21 [Example 53] | – | 95 | 100 | – | –
22 | COC1(C(=O)Nc2ccc(-n3ncc4ccccc43)cc2)CCOC1 (stereo not shown) [Example 134] | – | 100 | 100 | – | –
23 | O=C(NC1CCc2ccccc21)c1n[nH]c2ccccc12 (stereo not shown) [Example 132] | – | 97 | 100 | – | –
24 | O=C(c1n[nH]c2ccccc12)N1CCSCC1 [Example 123] | – | 92 | 100 | – | –
25 | COC(=O)c1cc(CNC(=O)c2n[nH]c3ccccc23)ccc1OC [Example 100] | – | 96 | 90 | – | –
26 | CC(CNC(=O)c1cccc2cn[nH]c12)CC1(C)OCCO1 (stereo not shown) [Example 143] | – | 100 | 100 | – | –

Row | Compound | Nitrification inhibition (%) (agricultural soils; [3]) | activity at 2.5 µM [1] [%] | activity at 10 µM [2] [%] | inhibition at 50 µM (agricultural soils; soil, 120 h, 5 days, 50 µM of each compound) [%] | inhibition at 100 µM (agricultural soils; soil, 168 h, 7 days, 100 µM of each compound, 6 inhibitors alone and combined with Example 2) [%]
27 | O=C(Nc1ccc2[nH]ncc2c1)C1(c2ccc(F)cc2)CC1 [Example 162] | – | 100 | 100 | – | –
28 | CNS(=O)(=O)c1cccc(C(=O)Nc2cnc3c(c2)c(C)nn3C)c1 [Example 43] | – | 100 | 98 | – | –
29 | CC(C)n1ncc2cc(NC(=O)C3(C)CC3(Cl)Cl)cnc21 (stereo not shown) [Example 50] | – | 92 | 100 | – | –
30 | O=C(NCCCSc1ccccc1)c1n[nH]c2ccccc12 [Example 136] | – | 96 | 100 | – | –
31 | CC(C)n1ncc2cc(NC(=O)CCc3cc4ccccc4o3)cnc21 [Example 65] | – | 100 | 100 | – | –
32 | CC(C)n1ncc2cc(CNc3ccc4[nH]ncc4c3)ccc21 [Example 30] | – | 100 | 92 | – | –
33 | CC(NC(=O)c1cnc2c(cnn2C(C)C)c1)C1CCCO1 (stereo not shown) [Example 52] | – | 100 | 100 | – | –
34 | Cc1cc(C)c2c(OCC(=O)N3CCOCC3(C)C)nn(C)c2n1 [Example 45] | – | 98 | 99 | – | –
35 | CCN(CCC#N)Cn1nc(Cl)c2ccccc21 [Example 150] | – | 100 | 100 | – | –
36 | CC(=O)c1ccc(OCC(=O)Nc2cnc3c(cnn3C(C)C)c2)cc1 [Example 87] | – | 93 | 100 | – | –
37 | O=S(=O)(Nc1n[nH]c2ccccc12)c1ccccc1C(F)(F)F [Example 139] | – | 97 | 100 | – | –
38 | CC(CCc1ccco1)NC(=O)c1cnc2c(cnn2Cc2ccccc2)c1 (stereo not shown) [Example 51] | – | 91 | 100 | – | –
39 | CC1(C)CN(C(=O)c2n[nH]c3ccccc23)CCS1(=O)=O [Example 117] | – | 100 | 99 | – | –
40 | CCCC(O)CNCc1cccc2cn[nH]c12 (stereo not shown) [Example 155] | – | 100 | 100 | – | –
41 | O=C1NC(=S)S/C1=C\c1cccc2cn[nH]c12 [Example 124] | – | 99 | 100 | – | –
42 | O=C(Nc1ccc(C(=O)Nc2cccc3cn[nH]c23)cc1)c1ccccc1 [Example 137] | – | 98 | 100 | – | –
43 | CCC(C)(CC)NC(=O)COc1nn(C)c2nc(C)cc(C)c12 [Example 64] | – | 100 | 100 | – | –
44 | CCC(C)n1ncc2c(C(=O)O)cc(C3CC3)nc21 (stereo not shown) [Example 32] | – | 90 | 94 | – | –
45 | COCCN1CCN(Cc2cccc3cn[nH]c23)CC1=O [Example 164] | – | 100 | 100 | – | –
46 | Cc1nn(C)c2ncc(C(=O)NCC3CN(CC(C)C)CCO3)cc12 (stereo not shown) [Example 21] | – | 100 | 90 | – | –
47 | c1ccc(N2CCOCC2)c(CNc2ccc3[nH]ncc3c2)c1 [Example 105] | – | 100 | 94 | – | –
48 | O=S(=O)(CCC1CC1)Nc1n[nH]c2cccc(F)c12 [Example 102] | – | 100 | 90 | – | –
49 | CC(C)n1ncc2cc(NC(=O)Cc3ccc(F)cc3)cnc21 [Example 56] | – | 100 | 100 | – | –
50 | Cc1ccccc1OCCN(C)C(=O)c1n[nH]c2ccccc12 [Example 148] | – | 100 | 100 | – | –
51 | Cc1nc2c(cc1C(=O)NC(C)C1CCCO1)c(C)nn2C (stereo not shown) [Example 48] | – | 99 | 100 | – | –
